Biological target: T1, human vasopressin V1b receptor (Homo sapiens, UniProt P47901)
T1 construct: expressed in transfected cells; host or cells: CHO-K1 (cell line hV1b_3H2_CHO), membrane preparation
T1 sequence (P47901 1-424): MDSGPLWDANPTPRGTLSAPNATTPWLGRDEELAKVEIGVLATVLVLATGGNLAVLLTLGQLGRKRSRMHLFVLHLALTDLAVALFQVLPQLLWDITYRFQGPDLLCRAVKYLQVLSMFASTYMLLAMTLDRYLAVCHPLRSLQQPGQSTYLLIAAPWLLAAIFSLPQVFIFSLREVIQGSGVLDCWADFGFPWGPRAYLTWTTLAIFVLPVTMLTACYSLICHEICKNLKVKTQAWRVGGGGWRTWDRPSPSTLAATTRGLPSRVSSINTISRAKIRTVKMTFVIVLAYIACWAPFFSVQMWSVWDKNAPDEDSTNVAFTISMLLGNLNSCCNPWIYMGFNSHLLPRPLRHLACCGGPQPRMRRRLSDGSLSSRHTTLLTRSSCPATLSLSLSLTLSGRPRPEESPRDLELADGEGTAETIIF
Assay: Vasopressin V1b receptor binding test
Settings: membranes of CHO-K1 cells with human V1b receptor, displacement of 1.5 nM 3H-AVP; for compounds with more than one stereogenic center the diastereomer with greater affinity
Procedure, shortened: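 Affinity constants (Ki) came from nonlinear regression of triplicate scintillation counts after filtration separated bound from free radioligand. Compounds competed at human V1b membranes for 60 min, room temperature, in pH 7.4 tris/MgCl2/BSA buffer with 2% DMSO; 1 μM AVP defined nonspecific binding.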

SMILES | Ki
CCOc1ccc(CNC)cc1C1(N2CCC[C@H]2c2ncco2)C(=O)N(S(=O)(=O)c2ccc(OC)cc2)c2ccc(Cl)cc21 (stereo partly drawn) [Example 203, 5-Chloro-3-(2-ethoxy-5-methylaminomethylphenyl)-1-(4-methoxybenzenesulfonyl)-3-((S)-2-oxazol-2-yl-pyrrolidin-1-yl)-1,3-dihydroindol-2-one] | 10 to 100 nM
CCOc1ccc(CNC(C)C)cc1C1(N2CCC[C@H]2c2ncco2)C(=O)N(S(=O)(=O)c2ccc(OC)cc2)c2ccc(Cl)cc21 (stereo partly drawn) [Example 205, 5-Chloro-3-[2-ethoxy-5-(isopropylaminomethyl)phenyl]-1-(4-methoxybenzenesulfonyl)-3-((S)-2-oxazol-2-yl-pyrrolidin-1-yl)-1,3-dihydroindol-2-one] | 10 to 100 nM
CCNCc1ccc(OCC)c(C2(N3CCC[C@H]3c3ncco3)C(=O)N(S(=O)(=O)c3ccc(OC)cc3)c3ccc(Cl)cc32)c1 (stereo partly drawn) [Example 206, 5-Chloro-3-(2-ethoxy-5-ethylaminomethylphenyl)-1-(4-methoxybenzenesulfonyl)-3-((S)-2-oxazol-2-yl-pyrrolidin-1-yl)-1,3-dihydroindol-2-one] | 10 to 100 nM
COc1ccc(S(=O)(=O)N2C(=O)C(c3cc(CN(C)C)ccc3OC)(N3CCC[C@H]3c3ncon3)c3cc(Cl)ccc32)cc1 (stereo partly drawn) [Example 209, 5-Chloro-3-(5-dimethylaminomethyl-2-methoxyphenyl)-1-(4-methoxybenzenesulfonyl)-3-((S)-2-[1,2,4]oxadiazol-3-yl-pyrrolidin-1-yl)-1,3-dihydroindol-2-one] | < 10 nM

Next, values leading:

Ki | SMILES
< 10 nM | COc1ccc(S(=O)(=O)N2C(=O)C(c3cc(CN4CCNCC4)ccc3OC)(N3CCC[C@H]3c3ncco3)c3cc(Cl)c(F)cc32)cc1 (stereo partly drawn) [Example 200, 5-Chloro-6-fluoro-1-(4-methoxybenzenesulfonyl)-3-(2-methoxy-5-piperazin-1-ylmethylphenyl)-3-((S)-2-oxazol-2-yl-pyrrolidin-1-yl)-1,3-dihydroindol-2-one]
< 10 nM | COc1ccc(S(=O)(=O)N2C(=O)C(c3ccc(CN4CCN(C)CC4)cc3OC)(N3CCC[C@H]3c3ncco3)c3cc(Cl)c(F)cc32)cc1 (stereo partly drawn) [Example 201, 5-Chloro-6-fluoro-1-(4-methoxybenzenesulfonyl)-3-[2-methoxy-4-(4-methylpiperazin-1-ylmethyl)phenyl]-3-((S)-2-oxazol-2-yl-pyrrolidin-1-yl)-1,3-dihydroindol-2-one]
10 to 100 nM | CCOc1ccc(CN2CCN(C)CC2)cc1C1(N2CCC[C@H]2c2ncco2)C(=O)N(S(=O)(=O)c2ccc(OC)cc2)c2ccc(Cl)cc21 (stereo partly drawn) [Example 202, 5-Chloro-3-[2-ethoxy-5-(4-methylpiperazin-1-ylmethyl)phenyl]-1-(4-methoxybenzenesulfonyl)-3-((S)-2-oxazol-2-yl-pyrrolidin-1-yl)-1,3-dihydroindol-2-one]
10 to 100 nM | CCOc1ccc(CN(C)C)cc1C1(N2CCC[C@H]2c2ncco2)C(=O)N(S(=O)(=O)c2ccc(OC)cc2)c2ccc(Cl)cc21 (stereo partly drawn) [Example 204, 5-Chloro-3-(5-dimethylaminomethyl-2-ethoxyphenyl)-1-(4-methoxybenzenesulfonyl)-3-((S)-2-oxazol-2-yl-pyrrolidin-1-yl)-1,3-dihydroindol-2-one]
< 10 nM | COc1ccc(S(=O)(=O)N2C(=O)C(c3cc(CN4CCN(C)CC4)ccc3OC)(N3CCC[C@H]3c3ncon3)c3cc(Cl)ccc32)cc1 (stereo partly drawn) [Example 207, 5-Chloro-1-(4-methoxybenzenesulfonyl)-3-[2-methoxy-5-(4-methylpiperazin-1-ylmethyl)phenyl]-3-((S)-2-[1,2,4]oxadiazol-3-yl-pyrrolidin-1-yl)-1,3-dihydroindol-2-one]
10 to 100 nM | COc1ccc(S(=O)(=O)N2C(=O)C(c3cc(CN4CCNCC4)ccc3OC)(N3CCC[C@H]3c3ncon3)c3cc(Cl)ccc32)cc1 (stereo partly drawn) [Example 208, 5-Chloro-1-(4-methoxybenzenesulfonyl)-3-(2-methoxy-5-piperazin-1-ylmethylphenyl)-3-((S)-2-[1,2,4]oxadiazol-3-yl-pyrrolidin-1-yl)-1,3-dihydroindol-2-one]

From patent US8044079B2, “Substituted oxindole derivatives, medicaments containing said derivatives and use thereof” (Abbott GmbH & Co. KG, priority 2005, dated 2011)
